The source of these data is ChEMBL document CHEMBL1159237, “The isolation and structural elucidation of three new neolignans, piperulins [corrected] A, B, and C, as platelet activating factor receptor antagonists from Piper puberulum” (J Nat Prod, 1995).

One assay is filed under the species Oryctolagus cuniculus. The assay can be described thus: Displacement of [3H]PAF from rabbit PAF receptor in isolated platelet plasma membrane at 10 uM. The format is cell membranes. (In general: Displacement assays read how much labelled ligand stays bound in the presence of the test substance.)
Assay [1] in a line: Displacement of [3H]PAF from rabbit PAF receptor in isolated platelet plasma membrane. The format is cell membranes, Oryctolagus cuniculus.

For orientation: IC50 means the concentration that inhibits the measured activity by half. Lower therefore signals greater potency in that assay. One may read the Ki as a dissociation constant, usually derived from enzyme kinetics or from competition with a known ligand. Low readings indicate tighter binding, high ones weaker binding. As for `C=CC[C@]12C=C(OC)C(=O)[C@H]([C@@H](c3ccc(O)c(OC)c3)[C@@H]1C)[C@@H]2OC(C)=O` [PUBERULIN C], the Activity in the assay listed under Oryctolagus cuniculus stood at 66%. In assay [1], this compound came in with an IC50 of 5.7 µM and a Ki of 3.7 µM.
For `C=CCC1=C[C@@]2(OC)[C@@H](C)[C@H](c3ccc(OC)c(OC)c3)[C@@H](C1=O)[C@@H]2OC(C)=O` [PUBERULIN A], in that order: 63%, 7.3 µM and 4.7 µM.
Compound `C=CCC1=C[C@@]2(OC)[C@@H](C)[C@H](c3ccc4c(c3)OCO4)[C@@H](C1=O)[C@@H]2OC(C)=O` [PUBERULIN B] had an Activity in the assay filed under Oryctolagus cuniculus of 43%. Moreover, the IC50 in assay [1] is no less than 10 µM.
